From the NIST ThermoML archive (doi:10.1007/s10765-010-0773-1)
± gives the expanded uncertainty stated by the source.

Key:
[1] = xn = mol fraction of the nth substance listed; details: 101 kPa, Liquid, x2 = 0; for mass density: Vibrating tube method; for speed of sound: Pulse-echo method
[2] = refractive index (Na D-line) (dimensionless); details: 298.15 K; 101.33 kPa; Liquid; Standard Abbe refractometry

In the case of CCCCCCC [heptane] + BrCBr, the mass density ([1]; 288.15 K) is reported as 688.15 ± 0.25 kg/m3, the speed of sound ([1]; 292.87 K) is reported as 1152.5 ± 1.6 m/s and the mass density ([1]; 293.15 K) is reported as 683.94 ± 0.25 kg/m3. For the same compound, the speed of sound ([1]; 298.14 K) was 1129.7 ± 1.6 m/s, the mass density ([1]; 298.15 K) was 679.7 ± 0.25 kg/m3 and the speed of sound ([1]; 303.12 K) was 1108.2 ± 1.6 m/s. For the same compound, the mass density ([1]; 303.15 K) was 675.44 ± 0.25 kg/m3, the speed of sound ([1]; 308.1 K) was 1086.8 ± 1.6 m/s and the mass density ([1]; 308.15 K) was 671.15 ± 0.25 kg/m3. The mass density ([1]; 313.15 K) was 666.83 ± 0.25 kg/m3, the speed of sound ([1]; 313.27 K) was 1064.7 ± 1.6 m/s and the mass density ([1]; 318.15 K) was 662.48 ± 0.25 kg/m3.

Work on BrCBr [dibromomethane] yielded a refractive index [2] of 1.3851 ± 0.0011.
